Test results reported in patent publication US5041567A, “Antibacterial monic acid derivatives” (Beecham Group plc, priority 1982, dated 1991).
Converted amounts (≈) assume the structure as drawn. Like-named read-outs stand apart in the source and are kept apart here.

Columns and labels:
[1] = system: Corynebacterium xerosis 9755; assay: MIC against human bacteria in vitro; assay type: cell-based; details: Corynebacterium xerosis 9755, 5% chocolated horse blood agar, 18 hours
[2] = system: Strep. pyogenes R80/421-A; assay: MIC against human bacteria in vitro; assay type: cell-based; details: Strep. pyogenes R80/421-A, 5% chocolated horse blood agar, 18 hours
B. subtilis ATCC 6633 = assay: MIC against veterinary bacteria in vitro
Experimental: (§1) The activity of the compounds of the Examples against various veterinarily important bacteria, was assayed in vitro using two-fold serial dilutions in Diagnostic Sensitivity Test Agar inoculated with 10^4 organisms.

M. dispar NCTC 10125 = assay: MIC against mycoplasma in vitro; assay type: cell-based
Past. multocida PA1 = assay: MIC against veterinary bacteria in vitro
Experimental: as §1

M. hyorhinis ATCC 25021 = assay: MIC against mycoplasma in vitro; assay type: cell-based
Strep. dysgalactiae SPD1 = assay: MIC against veterinary bacteria in vitro
Experimental: as §1

[3] = system: Staph. aureus B4 (pen. resistant); assay: MIC against veterinary bacteria in vitro
Experimental: as §1

Past. haemolytica PA5 = assay: MIC against veterinary bacteria in vitro
Experimental: as §1

[4] = system: M. suipneumoniae J2206/183^b; assay: MIC against mycoplasma in vitro; assay type: cell-based
P. mirabilis 889 = assay: MIC against human bacteria in vitro; assay type: cell-based; details: P. mirabilis 889, 5% chocolated horse blood agar, 18 hours
M. suipneumoniae LABER = assay: MIC against mycoplasma in vitro; assay type: cell-based
[5] = system: M. suipneumoniae PW/C/210; assay: MIC against mycoplasma in vitro; assay type: cell-based; details: Mesomycoplasma hyopneumoniae, 144 h
Strep. uberis SPU1 = assay: MIC against veterinary bacteria in vitro
Experimental: as §1

M. bovis NCTC 10131 = assay: microbe, parasite or virus in culture; assay type: cell-based
E. coli NCTC 10418 = assay: MIC against human bacteria in vitro; assay type: cell-based; details: E. coli NCTC 10418, agar with 5% chocolated horse blood, 18 hours, 37° C.
K. aerogenes A = assay: MIC against human bacteria in vitro; assay type: cell-based; details: K. aerogenes A, 5% chocolated horse blood agar, 18 hours
[6] = system: Corynebacterium pyogenes CY1; assay: MIC against veterinary bacteria in vitro
Experimental: as §1

[7] = system: M. hyosynoviae ATCC 25591; assay: MIC against mycoplasma in vitro; assay type: cell-based
M. suipneumoniae Str. 11 = assay: MIC against mycoplasma in vitro; assay type: cell-based
Strep. faecalis I = assay: MIC against human bacteria in vitro; assay type: cell-based; details: Strep. faecalis I, 5% chocolated horse blood agar, 18 hours
Bacillus subtilis 6633 = assay: MIC against human bacteria in vitro; assay type: cell-based
Staph. aureus Oxford = assay: MIC against human bacteria in vitro; assay type: cell-based; details: Staph. aureus Oxford, 5% chocolated horse blood agar, 18 hours
[8] = Streptococcus pyogenes, read-out: MIC
[9] = Bacillus subtilis, ATCC6633, 18 h
[10] = Pasteurella multocida, PA1, 18 h
[11] = Streptococcus dysgalactiae, SPD1, 18 h
[12] = Mesomycoplasma hyopneumoniae, 144 h
[13] = Proteus mirabilis, read-out: MIC
[14] = Streptococcus uberis, SPU1, 18 h
[15] = Escherichia coli, NCTC10418, read-out: MIC
[16] = Klebsiella aerogenes, read-out: MIC
[17] = Enterococcus faecalis, read-out: MIC
[18] = Staphylococcus aureus, read-out: MIC

`CSc1cccc(-c2cnc(/C=C(\C)C[C@@H]3OC[C@H](C[C@@H]4O[C@H]4[C@@H](C)[C@H](C)O)[C@@H](O)[C@H]3O)o2)c1` [Example 22, 5-m-Methylthiophenyl-2-(1-normon-2-yl)oxazole A] was tested, and the MIC ([1]; read-out: MIC) was greater than 128 µg/mL, the MIC [2, 8] was 8 µg/mL (≈ 16.3 µM) and the MIC (B. subtilis ATCC 6633; [9]) was 0.625 µg/mL (≈ 1.28 µM). The MIC (M. dispar NCTC 10125; 144 h, M. dispar NCTC 10125, 6 days, 37° C., read-out: MIC) was 0.5 µg/mL (≈ 1.02 µM), the MIC (Past. multocida PA1; [10]) was 20 µg/mL (≈ 40.8 µM) and the MIC (M. hyorhinis ATCC 25021; Mesomycoplasma hyorhinis, ATCC25021, 144 h, M. hyorhinis ATCC 25021, 6 days, 37° C., read-out: MIC) was 0.5 µg/mL (≈ 1.02 µM). It also gave an MIC (Strep. dysgalactiae SPD1; [11]) of 1.25 µg/mL (≈ 2.55 µM), an MIC ([3]; Staphylococcus aureus, 18 h) of 1.25 µg/mL (≈ 2.55 µM) and an MIC (Past. haemolytica PA5; Mannheimia haemolytica, PA5, 18 h) of 80 µg/mL (≈ 163 µM). For the same compound, the MIC [4, 12] was 1 µg/mL (≈ 2.04 µM), the MIC (P. mirabilis 889; [13]) was greater than 128 µg/mL and the MIC (M. suipneumoniae LABER; Mesomycoplasma hyopneumoniae, 144 h, M. suipneumoniae LABER, 6 days, 37° C., read-out: MIC) was 0.5 µg/mL (≈ 1.02 µM). The MIC ([5]; M. suipneumoniae PW/C/210, 6 days, 37° C., read-out: MIC) was 0.5 µg/mL (≈ 1.02 µM), the MIC (Strep. uberis SPU1; [14]) was 0.156 µg/mL (≈ 0.319 µM) and the MIC (M. bovis NCTC 10131; NCTC10131, 144 h) was 0.05 µg/mL (≈ 0.102 µM). It also gave an MIC (E. coli NCTC 10418; [15]) greater than 128 µg/mL, an MIC (K. aerogenes A; [16]) greater than 128 µg/mL and an MIC ([6]; CY1, 18 h) greater than 80 µg/mL. It also gave an MIC ([7]; 144 h) of 1 µg/mL (≈ 2.04 µM), an MIC (M. suipneumoniae Str. 11; Mesomycoplasma hyopneumoniae, 144 h, M. suipneumoniae Str. 11, 6 days, 37° C., read-out: MIC) of 0.5 µg/mL (≈ 1.02 µM) and an MIC (Strep. faecalis I; [17]) greater than 128 µg/mL. For the same compound, the MIC (Bacillus subtilis 6633; Bacillus subtilis 6633, 5% chocolated horse blood agar, 18 hours, read-out: MIC) was 4 µg/mL (≈ 8.17 µM) and the MIC (Staph. aureus Oxford; [18]) was 4 µg/mL (≈ 8.17 µM).
Compound `CC(=Cc1cnc(-c2ccccc2)o1)CC1OCC(CC2OC2C(C)C(C)O)C(O)C1O` (stereo not shown) [Example 35, 5-(1-Normon-2-yl)-2-phenyloxazole A] has an MIC [1] greater than 128 µg/mL, an MIC [2] greater than 128 µg/mL and an MIC (B. subtilis ATCC 6633; B. subtilis ATCC 6633, Diagnostic Sensitivity Test Agar, 18 hours) greater than 80 µg/mL. For the same compound, the MIC (M. dispar NCTC 10125; M. dispar NCTC 10125, 6 days, 37° C.) was greater than 10 µg/mL, the MIC (Past. multocida PA1; Past. multocida PA1, Diagnostic Sensitivity Test Agar, 18 hours) was 80 µg/mL (≈ 180 µM) and the MIC (M. hyorhinis ATCC 25021; M. hyorhinis ATCC 25021, 6 days, 37° C.) was greater than 10 µg/mL. It also gave an MIC (Strep. dysgalactiae SPD1; Strep. dysgalactiae SPD1, Diagnostic Sensitivity Test Agar, 18 hours) greater than 80 µg/mL, an MIC ([3]; Staph. aureus B4 (pen. resistant), Diagnostic Sensitivity Test Agar, 18 hours) greater than 80 µg/mL and an MIC (Past. haemolytica PA5; Past. haemolytica PA5, Diagnostic Sensitivity Test Agar, 18 hours) greater than 80 µg/mL. The MIC ([4]; M. suipneumoniae J2206/183^b, 6 days, 37° C.) was greater than 10 µg/mL, the MIC (P. mirabilis 889) was greater than 128 µg/mL and the MIC (M. suipneumoniae LABER; M. suipneumoniae LABER, 6 days, 37° C.) was greater than 10 µg/mL. The MIC (Strep. uberis SPU1; Strep. uberis SPU1, Diagnostic Sensitivity Test Agar, 18 hours) was 80 µg/mL (≈ 180 µM), the MIC (M. bovis NCTC 10131; M. bovis NCTC 10131, 6 days, 37° C.) was 2.5 µg/mL (≈ 5.64 µM) and the MIC (E. coli NCTC 10418) was greater than 128 µg/mL. It also gave an MIC (K. aerogenes A) greater than 128 µg/mL, an MIC ([6]; Corynebacterium pyogenes CY1, Diagnostic Sensitivity Test Agar, 18 hours) greater than 80 µg/mL and an MIC ([7]; M. hyosynoviae ATCC 25591, 6 days, 37° C.) greater than 10 µg/mL. For the same compound, the MIC (M. suipneumoniae Str. 11; M. suipneumoniae Str. 11, 6 days, 37° C.) was greater than 10 µg/mL, the MIC (Strep. faecalis I) was greater than 128 µg/mL and the MIC (Bacillus subtilis 6633; Bacillus subtilis 6633, 5% chocolated horse blood agar, 18 hours) was greater than 128 µg/mL. It also gave an MIC (Staph. aureus Oxford) greater than 128 µg/mL.
Work on `C/C(=C\c1ncc(-c2ccccc2[N+](=O)[O-])o1)C[C@@H]1OC[C@H](C[C@@H]2O[C@H]2[C@@H](C)[C@H](C)O)[C@@H](O)[C@H]1O` [Example 26, 5-o-Nitrophenyl-2-(1-normon-2-yl)oxazole A] yielded an MIC ([1]; read-out: MIC) greater than 128 µg/mL, an MIC [2, 8] of 1 µg/mL (≈ 2.05 µM) and an MIC (B. subtilis ATCC 6633; [9]) of 0.312 µg/mL (≈ 0.639 µM). It also gave an MIC (M. dispar NCTC 10125; 144 h) of 1 µg/mL (≈ 2.05 µM), an MIC (Past. multocida PA1; [10]) of 10 µg/mL (≈ 20.5 µM) and an MIC (M. hyorhinis ATCC 25021; Mesomycoplasma hyorhinis, ATCC25021, 144 h) of 2.5 µg/mL (≈ 5.12 µM). The MIC (Strep. dysgalactiae SPD1; [11]) was 0.625 µg/mL (≈ 1.28 µM), the MIC ([3]; Staphylococcus aureus, 18 h) was 2.5 µg/mL (≈ 5.12 µM) and the MIC ([4]; Mesomycoplasma hyopneumoniae, 144 h, M. suipneumoniae J2206/183^b, 6 days, 37° C., read-out: MIC) was 5 µg/mL (≈ 10.2 µM). It also gave an MIC (P. mirabilis 889; [13]) greater than 128 µg/mL, an MIC (M. suipneumoniae LABER; [12]) of 2.5 µg/mL (≈ 5.12 µM) and an MIC [5] of 1 µg/mL (≈ 2.05 µM). It also gave an MIC (Strep. uberis SPU1; [14]) of 0.156 µg/mL (≈ 0.319 µM), an MIC (M. bovis NCTC 10131; NCTC10131, 144 h) of 0.025 µg/mL (≈ 0.0512 µM) and an MIC (E. coli NCTC 10418; [15]) greater than 128 µg/mL. The MIC (K. aerogenes A; [16]) was greater than 128 µg/mL, the MIC ([6]; CY1, 18 h) was greater than 80 µg/mL and the MIC ([7]; 144 h, M. hyosynoviae ATCC 25591, 6 days, 37° C., read-out: MIC) was 0.5 µg/mL (≈ 1.02 µM). It also gave an MIC (M. suipneumoniae Str. 11; Mesomycoplasma hyopneumoniae, STR.11, 144 h) of 2.5 µg/mL (≈ 5.12 µM), an MIC (Strep. faecalis I; [17]) greater than 128 µg/mL and an MIC (Bacillus subtilis 6633; Bacillus subtilis, 6633, 18 h) of 0.25 µg/mL (≈ 0.512 µM). It also gave an MIC (Staph. aureus Oxford; [18]) of 4 µg/mL (≈ 8.19 µM).
